Laboratory results: ChEMBL document CHEMBL1201862, “PubChem BioAssay data set” (2004)
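Compound exposure: 48 hours, 5 concentrations, 96-well plates. Abbreviation: GI50, concentration required for 50% inhibition of growth.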 The source made the active and inactive calls. Cut-off read from the data, not from the text of the source: active = GI50 up to about 1.1 µM and inactive = higher.

Legend:
Test in all cases: NCI-60 cell line screen, 48 h
DU-145 = test system: DU-145
SNB-19 = test system: SNB-19
PC-3 = test system: PC-3
SK-MEL-2 = test system: SK-MEL-2
OVCAR-3 = test system: OVCAR-3
MOLT-4 = test system: MOLT-4
T47D = test system: T47D
HCT-15 = test system: HCT-15
UACC-257 = test system: UACC-257
HL-60 = test system: HL-60
SK-OV-3 = test system: SK-OV-3
A549 = test system: A549
IGROV-1 = test system: IGROV-1
786-0 = test system: 786-0
SK-MEL-5 = test system: SK-MEL-5
SN12C = test system: SN12C
SNB-75 = test system: SNB-75
LOX IMVI = test system: LOX IMVI
Hs-578T = test system: Hs-578T
SR = test system: SR

CC1(C)OC2CN(C(=O)OCc3ccccc3)C(CO)C2O1 (stereo not given)
GI50 (DU-145): > 100 µM (inactive)
GI50 (SNB-19): > 100 µM (inactive)
GI50 (PC-3): > 100 µM (inactive)
GI50 (SK-MEL-2): > 100 µM (inactive)
GI50 (OVCAR-3): > 100 µM (inactive)
GI50 (MOLT-4): > 100 µM (inactive)
GI50 (T47D): > 100 µM (inactive)
GI50 (HCT-15): > 100 µM
GI50 (UACC-257): > 100 µM (inactive)
GI50 (HL-60): > 100 µM (inactive)
GI50 (SK-OV-3): > 100 µM (inactive)
GI50 (A549): > 100 µM (inactive)
GI50 (IGROV-1): > 100 µM (inactive)
GI50 (786-0): > 100 µM (inactive)
GI50 (SK-MEL-5): > 100 µM (inactive)
GI50 (SN12C): > 100 µM (inactive)
GI50 (SNB-75): > 100 µM (inactive)
GI50 (LOX IMVI): > 100 µM (inactive)
GI50 (Hs-578T): > 100 µM (inactive)

N#CCCN(CCC#N)c1ccc(/C=C2\N=C(c3ccccc3)N(c3ccccn3)C2=O)cc1
GI50 (DU-145): > 100 µM (inactive)
GI50 (SNB-19): > 100 µM (inactive)
GI50 (PC-3): > 100 µM (inactive)
GI50 (SK-MEL-2): > 100 µM (inactive)
GI50 (OVCAR-3): > 100 µM (inactive)
GI50 (MOLT-4): > 100 µM (inactive)
GI50 (T47D): > 100 µM (inactive)
GI50 (HCT-15): > 100 µM
GI50 (UACC-257): > 100 µM (inactive)
GI50 (HL-60): > 100 µM (inactive)
GI50 (SK-OV-3): > 100 µM (inactive)
GI50 (A549): > 100 µM (inactive)
GI50 (IGROV-1): > 100 µM (inactive)
GI50 (786-0): > 100 µM (inactive)
GI50 (SK-MEL-5): > 100 µM (inactive)
GI50 (SN12C): > 100 µM (inactive)
GI50 (LOX IMVI): > 100 µM (inactive)
GI50 (Hs-578T): > 100 µM (inactive)

C[Si](C)(C)CCOCN(C(=O)C1=CCC2(CC1)OCCO2)c1ccccc1I
GI50 (DU-145): 25.4 µM (inactive)
GI50 (SNB-19): 19.2 µM (inactive)
GI50 (PC-3): 12.6 µM (inactive)
GI50 (SK-MEL-2): 17.5 µM (inactive)
GI50 (OVCAR-3): 21.6 µM (inactive)
GI50 (MOLT-4): 10.8 µM (inactive)
GI50 (SR): 15.8 µM (inactive)
GI50 (T47D): 12.8 µM (inactive)
GI50 (HCT-15): 17.8 µM
GI50 (UACC-257): 20.9 µM (inactive)
GI50 (SK-OV-3): 16.8 µM (inactive)
GI50 (A549): 23.6 µM (inactive)
GI50 (IGROV-1): 24.6 µM (inactive)
GI50 (786-0): 17.7 µM (inactive)
GI50 (SK-MEL-5): 11.3 µM (inactive)
GI50 (SN12C): 28.1 µM (inactive)
GI50 (SNB-75): 17.7 µM (inactive)
GI50 (LOX IMVI): 29 µM (inactive)
GI50 (Hs-578T): 15.8 µM (inactive)

COc1ccccc1N1C(=O)/C(=C\c2ccccc2)SC1c1cc(OC)c(OC)c(OC)c1 (stereo not given)
GI50 (SNB-19): 66.8 µM (inactive)
GI50 (PC-3): 21.4 µM (inactive)
GI50 (SK-MEL-2): 7.06 µM (inactive)
GI50 (MOLT-4): 35 µM (inactive)
GI50 (SR): 33.7 µM (inactive)
GI50 (T47D): 5.97 µM (inactive)
GI50 (HCT-15): 32.3 µM
GI50 (UACC-257): 83.4 µM (inactive)
GI50 (SK-OV-3): 42.3 µM (inactive)
GI50 (A549): 40.7 µM (inactive)
GI50 (786-0): 32.2 µM (inactive)
GI50 (SK-MEL-5): 27.6 µM (inactive)
GI50 (SN12C): 17.6 µM (inactive)
GI50 (LOX IMVI): 21.9 µM (inactive)
GI50 (Hs-578T): 33.7 µM (inactive)

CNc1c2c(c3nc4ccccc4c4c3c1N=C4)NCCC2=O [PLAKINIDINE A]
GI50 (DU-145): > 10 µM (inactive)
GI50 (SNB-19): > 10 µM (inactive)
GI50 (PC-3): 3.46 µM (inactive)
GI50 (SK-MEL-2): > 10 µM (inactive)
GI50 (OVCAR-3): 8.57 µM (inactive)
GI50 (MOLT-4): 1.32 µM (inactive)
GI50 (T47D): 3.78 µM (inactive)
GI50 (HCT-15): 6.4 µM
GI50 (UACC-257): > 10 µM (inactive)
GI50 (SK-OV-3): 8.04 µM (inactive)
GI50 (A549): 3.52 µM (inactive)
GI50 (IGROV-1): 4.42 µM (inactive)
GI50 (786-0): 2.41 µM (inactive)
GI50 (SK-MEL-5): 6.55 µM (inactive)
GI50 (SN12C): 4.22 µM (inactive)
GI50 (SNB-75): 2.87 µM (inactive)
GI50 (Hs-578T): > 10 µM (inactive)

O=C(c1ccc(Cl)cc1)N(C(=S)OC12CC3CC(CC(C3)C1)C2)c1ccccc1
GI50 (DU-145): 76.4 µM (inactive)
GI50 (SNB-19): 29.6 µM (inactive)
GI50 (PC-3): 34 µM (inactive)
GI50 (SK-MEL-2): 30.1 µM (inactive)
GI50 (OVCAR-3): 44.6 µM (inactive)
GI50 (MOLT-4): 26.9 µM (inactive)
GI50 (T47D): 54.5 µM (inactive)
GI50 (HCT-15): 34.6 µM
GI50 (UACC-257): 46.6 µM (inactive)
GI50 (HL-60): 17 µM (inactive)
GI50 (SK-OV-3): 53.1 µM (inactive)
GI50 (A549): 31.9 µM (inactive)
GI50 (786-0): 29.6 µM (inactive)
GI50 (SK-MEL-5): 32 µM (inactive)
GI50 (SN12C): 45.2 µM (inactive)
GI50 (SNB-75): 42.9 µM (inactive)
GI50 (Hs-578T): 39.9 µM (inactive)

C/C(=N\N=C(\N)SB(F)F)c1ccc2ccccc2c1
GI50 (DU-145): > 100 µM (inactive)
GI50 (SNB-19): > 100 µM (inactive)
GI50 (PC-3): > 100 µM (inactive)
GI50 (SK-MEL-2): > 100 µM (inactive)
GI50 (SR): 54.5 µM (inactive)
GI50 (T47D): > 100 µM (inactive)
GI50 (HCT-15): 95.5 µM
GI50 (UACC-257): > 100 µM (inactive)
GI50 (SK-OV-3): > 100 µM (inactive)
GI50 (A549): > 100 µM (inactive)
GI50 (IGROV-1): > 100 µM (inactive)
GI50 (786-0): > 100 µM (inactive)
GI50 (SK-MEL-5): > 100 µM (inactive)
GI50 (SN12C): > 100 µM (inactive)
GI50 (SNB-75): > 100 µM (inactive)
GI50 (LOX IMVI): 56.4 µM (inactive)
GI50 (Hs-578T): > 100 µM (inactive)

CC(=O)c1ccc(O)c(CN(C2CCCCC2)C2CCCCC2)c1O
GI50 (DU-145): > 100 µM (inactive)
GI50 (SNB-19): > 100 µM (inactive)
GI50 (PC-3): > 100 µM (inactive)
GI50 (SK-MEL-2): > 100 µM (inactive)
GI50 (OVCAR-3): > 100 µM (inactive)
GI50 (MOLT-4): 61.4 µM (inactive)
GI50 (T47D): 21.6 µM (inactive)
GI50 (HCT-15): > 100 µM
GI50 (UACC-257): > 100 µM (inactive)
GI50 (SK-OV-3): > 100 µM (inactive)
GI50 (A549): > 100 µM (inactive)
GI50 (IGROV-1): > 100 µM (inactive)
GI50 (786-0): > 100 µM (inactive)
GI50 (SK-MEL-5): > 100 µM (inactive)
GI50 (SN12C): > 100 µM (inactive)
GI50 (SNB-75): 2.19 µM (inactive)
GI50 (LOX IMVI): > 100 µM (inactive)
GI50 (Hs-578T): > 100 µM (inactive)
